Experimental data published in US11116847B2, “Methylene carbamate linkers for use with targeted-drug conjugates” (Seagen Inc., priority 2013, dated 2021).
Marks after values point to notes of the source that are not given here.

B1: h1F6-1.3: h1F6 antibody (targets CD70+ cells) conjugated to auristatin E Drug-Linker compound 1.3 with MAC unit (conjugate, chains of the INN, looked up)
VH: QVQLVQSGAEVKKPGASVKVSCKASGYTFTNYGMNWVRQAPGQGLKWMGWINTYTGEPTYADAFKGRVTMTRDTSISTAYMELSRLRSDDTAVYYCARDYGDYGMDYWGQGTTVTVSS
VL: DIVMTQSPDSLAVSLGERATINCRASKSVSTSGYSFMHWYQQKPGQPPKLLIYLASNLESGVPDRFSGSGSGTDFTLTISSLQAEDVAVYYCQHSREVPWTFGQGTKVEIK
modifications: auristatin E drug-linker 1.3 with MAC unit
notes: h1F6 antibody (targets CD70+ cells) conjugated to auristatin E Drug-Linker compound 1.3 with MAC unit

Assays:
[1] = system: Type B-1 β-glucuronidase (bovine liver); test: Release of free drug or model drug from NAC-conjugates after glucuronidase activation of the Self-immolative Assembly Unit; type: biochemical; conditions: NAC-conjugate corresponding to the named model drug-linker compound (N-acetyl cap replaced by maleimide Stretcher quenched with N-acetyl-cysteine)
Experimental: Release of free drug from the NAC-7.7 conjugate derived from the Drug-Linker Compound of Example 7 was evaluated in the following manner: An enzyme stock was prepared by dissolving Type B-1 β-glucuronidase (bovine liver, 1,644,000 units/g solid) in pH 5 100 mM sodium acetate buffer to a working concentration of 0.5 mg/mL. Five microliters of 8 mM drug-linker stock of compound 7.7 was added to 12.5 μL DMSO, 26.3 μL of phosphate-buffered saline, and 6.75 μL of 100 mM N-acetylcysteine. The quenched linker was then diluted with 0.45 mL enzyme stock. The enzymatic reaction was then incubated at 37 C, with multiple time points taken at 1, 10, 20, and 40 minutes. Each time point sample consisted of 20 μL reaction diluted in 5 volumes ice cold methanol and cooled to −20 C until all the samples were withdrawn. The samples were then centrifuged at 12,000 g for 5 minutes and 20 μL of supernatant was analyzed by UPLC-MS. After 20 minutes of enzyme digestion the drug-linker was completely consumed. By 40 minutes, the majority of the material was free drug, indicating effectively complete drug release from the linker system.
Releases of stand-in “free drugs” from NAC conjugates incorporating the Drug-Linker moieties from Example 8 were also studied. Those compounds were prepared by replacing the N-acetyl capping group with N-3-(propionoyl)-maleimide, which introduces a maleimide Stretcher Unit precursor, in the amino intermediates used for the preparation of model drug linker compounds 8.23-8.30. The maleimide moieties are then quenched with N-acetyl-cysteine as previously described for the preparation of NAC-7.7. The NAC-conjugates derived from the amino intermediates of Example 8 have the generalized structure of
[drawing 194] wherein T* is the oxygen or sulfur heteroatom from the hydroxyl or sulfhydryl functional group of the primary alcohol or thiol-containing compound or the oxygen heteroatom from the hydroxyl functional group of the secondary or tertiary alcohol-containing compound or from the phenolic-containing compound of Table 3.

[2] = In vitro stability of drug-linker / model drug-linker compounds to spontaneous hydrolysis of the methylene carbamate unit (LC/MS); type: physicochemical; conditions: for Relative Degradation Half-life Observed by LC/MS: 0.1M PBS; for Relative Degradation Half-life Observed by LC/MS / drug-linker degradation: pH 7.4, at 37° C.; for degradation / stability to spontaneous hydrolysis / stability to spontaneous hydrolysis when R is dimethylaminoethyl instead of ethyl: 0.1 M phosphate buffered saline; for degradation / stability to spontaneous hydrolysis / stability to spontaneous hydrolysis when R is dimethylaminoethyl instead of ethyl / comparative hydrolytic stability: pH 7.4, 37° C.; for degradation / stability to spontaneous hydrolysis: tested every 24 h for 7 days by LC/MS; for stability to spontaneous hydrolysis when R is dimethylaminoethyl instead of ethyl: 7 days, compared with 8.26; for comparative hydrolytic stability: PBS, 8.26 compared with 6.4, 5.6 compared with model compound (8.23); for drug-linker degradation: after 14 da incubation in 0.1 M PBS
Experimental: General procedure for testing Drug-Linker stability: Final N-acetyl products of Example 8 were dissolved in 1 mL 0.1 M phosphate buffered saline, pH 7.4, in a vial at 37° C. LC/MS samples were prepared by adding 2 μL aliquots of incubated compound solution to 100 μL of MeOH in an HPLC vial. Each conjugate was tested every 24 h for 7 days.
For evaluation of in vitro stability of Compound 7.7 this Drug-Linker compound was converted to its N-acetylcysteine conjugate (NAC-7.7), which provide a model LDC with NAC serving as a surrogate for a targeting antibody Ligand Unit. For that purpose eight microliters of a 8 mM DMSO stock of Drug-Linker Compound was diluted in phosphate-buffered saline (0.39 mL). The maleimide moiety in each Drug-Linker Compound was then quenched with N-acetylcysteine (0.8 μL, 100 mM stock), and the material was stored in a 37° C. incubator. Aliquots were drawn at various time points out to 14 days and analyzed by UPLC-MS for drug-linker integrity.
Stability testing was conducted as in Example 9.

L540cy = test: In vitro cytotoxic activity of ADCs; type: cell-based; conditions: Table 6; L540cy CD30+ CD70 (low)
Experimental: (§1) The targeting antibody ligands cAC10 and h1F6 are described in U.S. Pat. […] cAC10-1006 and hF16-1006, referenced in the following tables, is the chimeric AC10 antibody and the humanized F16 antibody, respectively, conjugated to monomethyl auristatin E (MMAE) at its N terminus via a carbamate functional group to a val-cit-PABA self-immolative moiety having formula XVIII and was used as a control. The resultant ADCs were tested against multiple cell lines to determine in vitro activity, the results from which are summarized in Tables 5 and 6.

Karpas 299 = test: In vitro cytotoxic activity of ADCs; type: cell-based; conditions: Table 6; Karpas 299 CD30+ CD70−
Experimental: as §1

Caki-1 = test: In vitro cytotoxic activity of ADCs; type: cell-based; conditions: Table 6; Caki-1 CD70+
Experimental: as §1

786-0 = test: In vitro cytotoxic activity of ADCs; type: cell-based; conditions: Table 6; 786-0 CD70+
Experimental: as §1

Molecule	Time to 100% Release [1] [min]	Relative Degradation Half-life Observed by LC/MS [2]	degradation / stability to spontaneous hydrolysis [2]	further results
CCN(CSCCc1ccccc1)C(=O)OCc1ccc(O[C@@H]2O[C@H](C(=O)O)[C@@H](O)[C@H](O)[C@H]2O)c(NC(C)=O)c1 [Compound 8.29, (2S,3S,4S,5R,6S)-6-(2-acetamido-4-(((ethyl((phenethylthio)methyl)carbamoyl)oxy)methyl)phenoxy)-3,4,5-trihydroxytetrahydro-2H-pyran-2-carboxylic acid]	40	None Observed	no sign of degradation	–
CCN(COc1cccc2ccccc12)C(=O)OCc1ccc(O[C@@H]2O[C@H](C(=O)O)[C@@H](O)[C@H](O)[C@H]2O)c(NC(C)=O)c1 [Compound 8.28, (2S,3S,4S,5R,6S)-6-(2-acetamido-4-(((ethyl((naphthalen-1-yloxy)methyl)carbamoyl)oxy)methyl)phenoxy)-3,4,5-trihydroxytetrahydro-2H-pyran-2-carboxylic acid]	25	None Observed	excellent stability	–
CC(=O)Nc1cc(COC(=O)N(CCN(C)C)COCCc2ccccc2)ccc1O[C@@H]1O[C@H](C(=O)O)[C@@H](O)[C@H](O)[C@H]1O [Compound 8.30, (2S,3S,4S,5R,6S)-6-(2-acetamido-4-((((2-(dimethylamino)ethyl)(phenethoxymethyl)carbamoyl)oxy)methyl)phenoxy)-3,4,5-trihydroxytetrahydro-2H-pyran-2-carboxylic acid]	15	None Observed	–	–
CCN(COC(C)(C)Cc1ccccc1)C(=O)OCc1ccc(O[C@@H]2O[C@H](C(=O)O)[C@@H](O)[C@H](O)[C@H]2O)c(NC(C)=O)c1 [Compound 8.27, (2S,3S,4S,5R,6S)-6-(2-acetamido-4-(((ethyl(((2-methyl-1-phenylpropan-2-yl)oxy)methyl)carbamoyl)oxy)methyl)phenoxy)-3,4,5-trihydroxytetrahydro-2H-pyran-2-carboxylic acid]	15	170 h	suitable stability	stability to spontaneous hydrolysis when R is dimethylaminoethyl instead of ethyl [2]: same excellent stability
CO[C@H]1C[C@@H]2CC[C@@H](C)[C@@](O)(O2)C(=O)C(=O)N2CCCC[C@H]2C(=O)O[C@H]([C@@H](C)C[C@H]2CC[C@@H](OCCOCNC(=O)OCc3ccc(NC(=O)[C@H](CCCNC(N)=O)NC(=O)[C@@H](NC(=O)CCN4C(=O)C=CC4=O)C(C)C)cc3)[C@H](OC)C2)CC(=O)[C@H](C)/C=C(\C)[C@@H](O)[C@@H](OC)C(=O)[C@H](C)C[C@H](C)/C=C/C=C/C=C/1C [Compound 5.6]	–	170 h	–	comparative hydrolytic stability [2]: even better hydrolytic stability; drug-linker degradation [2]: No indication of drug-linker degradation
C=CC[C@@H]1/C=C(\C)C[C@H](C)C[C@H](OC)[C@H]2O[C@@](O)(C(=O)C(=O)N3CCCC[C@H]3C(=O)O[C@H](/C(C)=C/C3CC[C@@H](OCNC(=O)OCc4ccc(NC(=O)[C@H](CCCNC(N)=O)NC(=O)[C@@H](NC(=O)CCN5C(=O)C=CC5=O)C(C)C)cc4)[C@H](OC)C3)[C@H](C)[C@@H](O)CC1=O)[C@H](C)C[C@@H]2OC (some centres unmarked) [Compound 6.4]	–	None Observed	–	comparative hydrolytic stability [2]: acceptable stability; drug-linker degradation [2]: No indication of drug-linker degradation; half-life ([2]; phosphate buffered saline, 0.1 M PBS buffer, pH 7.4 at 37° C.): 10 h
COCCOCCOCCOCCOCCOCCOCCOCCN(COC(C)Cc1ccccc1)C(=O)OCc1ccc(O[C@@H]2O[C@H](C(=O)O)[C@@H](O)[C@H](O)[C@H]2O)c(NC(C)=O)c1 (stereo partly drawn) [Compound 8.32, (2S,3S,4S,5R,6S)-6-(2-acetamido-4-(3-oxo-4-(((1-phenylpropan-2-yl)oxy)methyl)-2,7,10,13,16,19,22,25,28-nonaoxa-4-azanonacosyl)phenoxy)-3,4,5-trihydroxytetrahydro-2H-pyran-2-carboxylic acid]	15	None Observed	no signs of degradation	–
CCN(COC(C)Cc1ccccc1)C(=O)OCc1ccc(O[C@@H]2O[C@H](C(=O)O)[C@@H](O)[C@H](O)[C@H]2O)c(NC(C)=O)c1 (stereo partly drawn) [Compound 8.26, (2S,3S,4S,5R,6S)-6-(2-acetamido-4-(((ethyl(((-phenylpropan-2-yl)oxy)methyl)carbamoyl)oxy)methyl)phenoxy)-3,4,5-trihydroxytetrahydro-2H-pyran-2-carboxylic acid]	45	None Observed	no signs of degradation	comparative hydrolytic stability [2]: increase stability
CCN(CO[C@H]1C2[C@H]3O[C@H]3[C@H]3C4=C(CC[C@]3(C)[C@@]23O[C@H]3[C@@H]2O[C@]12C(C)C)C(=O)OC4)C(=O)OCc1ccc(O[C@@H]2OC(C(=O)O)[C@@H](O)[C@H](O)C2O)c(NC(=O)CCNC(=O)CCN2C(=O)C=CC2=O)c1 (some centres unmarked) [Compound 4.5]	–	None Observed	–	drug-linker degradation [2]: No indication of drug-linker degradation
CC(=O)Nc1cc(COC(=O)N(CCN(C)C)COC(C)(C)Cc2ccccc2)ccc1O[C@@H]1O[C@H](C(=O)O)[C@@H](O)[C@H](O)[C@H]1O [Compound 8.31, (2S,3S,4S,5R,6S)-6-(2-acetamido-4-((((2-(dimethylamino)ethyl)(((2-methyl-1-phenylpropan-2-yl)oxy)methyl)carbamoyl)oxy)methyl)phenoxy)-3,4,5-trihydroxytetrahydro-2H-pyran-2-carboxylic acid]	15	None Observed	–	–
CCN(COCCc1ccccc1)C(=O)OCc1ccc(O[C@@H]2O[C@H](C(=O)O)[C@@H](O)[C@H](O)[C@H]2O)c(NC(C)=O)c1 [Compound 8.25, (2S,3S,4S,5R,6S)-6-(2-acetamido-4-(((ethyl(phenethoxymethyl)carbamoyl)oxy)methyl)phenoxy)-3,4,5-trihydroxytetrahydro-2H-pyran-2-carboxylic acid]	15	170 h	suitable stability	stability to spontaneous hydrolysis when R is dimethylaminoethyl instead of ethyl [2]: same excellent stability
B1	–	–	–	IC50 (L540cy): >1000* ng/mL; IC50 (Karpas 299): >1 mg/L; IC50 (Caki-1): 0.019 mg/L; IC50 (786-0): >1000** ng/mL
